The subject of experiment [1] is CEM-SS. The experiment in a line: Compound tested for inhibition of syncytium-forming units (SFU) in HIV-infected CEM-SS cells; Inhibited. The experiment is classed as functional, cell-based. To be noted: Homo sapiens.
For experiment [2], the system named is CEM-SS. The experiment can be described thus: Compound tested for inhibition of P24 (P24 antigen) in HIV-infected CEM-SS cells; Inhibited. The experiment is classed as functional, cell-based. The settings on record: Homo sapiens.
In experiment [3] the target is Human immunodeficiency virus type 1 reverse transcriptase (Human immunodeficiency virus 1) (UniProt Q72547). The experiment can be described thus: Compound tested for inhibition of RT (reverse transcriptase) in HIV-infected CEM-SS cells; Inhibited. The experiment is classed as cell-based.
In experiment [4] the test system is CEM-SS. The experiment in a line: Compound tested for cytotoxic effect on uninfected CEM-SS human lymphoblastoid target cell. The experiment is classed as functional, cell-based.
For experiment [5], the system named is CEM-SS. The experiment in a line: Compound tested for inhibition of the cytopathic effects of HIV-1 upon CEM-SShuman lymphoblastoid target cells in vitro. To be noted: Homo sapiens. The experiment is classed as functional, cell-based.

Among the data in ChEMBL document CHEMBL1125915, “Novel alkaloids from the tropical plant Ancistrocladus abbreviatus inhibit cell killing by HIV-1 and HIV-2” (J Med Chem, 1991) are inhibition, IC50 and EC50 values, retold here.

As for `COc1cc(C)cc2c(-c3c(O)cc(O)c4c3C[C@H](C)N[C@H]4C)cc(-c3cc(-c4c(O)cc(O)c5c4C[C@H](C)N[C@H]5C)c4cc(C)cc(OC)c4c3O)c(O)c12` (stereo in doubt; 1) [listing 1 of 2 here], the inhibition entry (in the experiment with CEM-SS [1]; with CEM-SS [2]; in experiment [3]) was “Inhibited” each time.

Compound `COc1cc(C)cc2c(-c3c(O)cc(O)c4c3C[C@H](C)N[C@H]4C)cc(-c3cc(-c4c(O)cc(O)c5c4C[C@H](C)N[C@H]5C)c4cc(C)cc(OC)c4c3O)c(O)c12` (stereo in doubt; 1) [listing 2 of 2 here] showed an IC50 in the experiment with CEM-SS [4] of 200 µM. In the experiment on CEM-SS [5], this compound gave an EC50 of 20 µM.

Take `COc1cc(C)cc2c(-c3c(O)cc(O)c4c3C[C@H](C)N[C@H]4C)cc(-c3cc(-c4c(O)cc(O)c5c4C[C@H](C)N[C@H]5C)c4cc(C)cc(OC)c4c3O)c(O)c12` (stereo in doubt; 2): the inhibition entry (in the experiment with CEM-SS [1]; in the experiment with CEM-SS [2]; in experiment [3]) was “Inhibited” each time.
